According to BigSolDB 2.1:

CO[C@@]1(NC(=O)CSCC#N)C(=O)N2C(C(=O)O)=C(CSc3nnnn3C)CS[C@@H]21
solubility (mole fraction)
Settings | 278.15 K | 283.15 K | 288.15 K | 293.15 K | 298.15 K | 303.15 K
in ethanol | 0.000266 | 0.000276 | 0.000343 | 0.000435 | 0.00049 | 0.000659
in methanol | 0.00163 | 0.00187 | 0.00222 | 0.00273 | 0.00364 | 0.00445
